Data reported in patent US8129371B2, “Thienopyrimidine and pyrazolopyrimidine compounds and their use as mTOR kinase and PI3 kinase inhibitors” (Wyeth LLC, priority 2007, dated 2012).
Like-named read-outs stand apart in the source and are kept apart here.

Key:
Human mTOR (FLAG-TOR) = target: T1, Human mTOR (FLAG-TOR) (Homo sapiens, UniProt P42345); assay: Human mTOR kinase assay with purified enzyme, DELFIA format; assay type: biochemical
T1 construct: FLAG
In short: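 Purified FLAG-mTOR in HEPES pH 7.4 buffer with 10 mM MnCl2 was preincubated with inhibitor and reacted 2 h at room temperature with His6-S6K substrate, then stopped with EDTA/EGTA. Phospho-T389 S6K detected by DELFIA with Eu-labelled antibody (40 ng/mL) after plate capture; inhibition computed from signal.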

prostate line LNCap = assay: In vitro cell culture growth assay (MTS), LNCap; assay type: cell-based; conditions: Homo sapiens, LNCaP, 72 h, LNCap cells, three days after drug treatment
In short: (§1)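 Viable cell density is assessed three days after inhibitor addition via MTS conversion, normalised to vehicle-treated cells.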

breast line MDA468 = assay: In vitro cell culture growth assay (MTS), MDA468; assay type: cell-based; conditions: Homo sapiens, 72 h, MDA468 cells, three days after drug treatment
In short: as §1

PI3K [1] = target: T2, PI3K (Homo sapiens, UniProt O00329); assay: Fluorescence polarization assay for PI3K; assay type: biochemical
T2 construct: PI3 Kinase δ IC50; other: PI3 Kinase δ; other: PI3 Kinase δ isoform, fluorescence polarization
T2 sequence (O00329 1-1044): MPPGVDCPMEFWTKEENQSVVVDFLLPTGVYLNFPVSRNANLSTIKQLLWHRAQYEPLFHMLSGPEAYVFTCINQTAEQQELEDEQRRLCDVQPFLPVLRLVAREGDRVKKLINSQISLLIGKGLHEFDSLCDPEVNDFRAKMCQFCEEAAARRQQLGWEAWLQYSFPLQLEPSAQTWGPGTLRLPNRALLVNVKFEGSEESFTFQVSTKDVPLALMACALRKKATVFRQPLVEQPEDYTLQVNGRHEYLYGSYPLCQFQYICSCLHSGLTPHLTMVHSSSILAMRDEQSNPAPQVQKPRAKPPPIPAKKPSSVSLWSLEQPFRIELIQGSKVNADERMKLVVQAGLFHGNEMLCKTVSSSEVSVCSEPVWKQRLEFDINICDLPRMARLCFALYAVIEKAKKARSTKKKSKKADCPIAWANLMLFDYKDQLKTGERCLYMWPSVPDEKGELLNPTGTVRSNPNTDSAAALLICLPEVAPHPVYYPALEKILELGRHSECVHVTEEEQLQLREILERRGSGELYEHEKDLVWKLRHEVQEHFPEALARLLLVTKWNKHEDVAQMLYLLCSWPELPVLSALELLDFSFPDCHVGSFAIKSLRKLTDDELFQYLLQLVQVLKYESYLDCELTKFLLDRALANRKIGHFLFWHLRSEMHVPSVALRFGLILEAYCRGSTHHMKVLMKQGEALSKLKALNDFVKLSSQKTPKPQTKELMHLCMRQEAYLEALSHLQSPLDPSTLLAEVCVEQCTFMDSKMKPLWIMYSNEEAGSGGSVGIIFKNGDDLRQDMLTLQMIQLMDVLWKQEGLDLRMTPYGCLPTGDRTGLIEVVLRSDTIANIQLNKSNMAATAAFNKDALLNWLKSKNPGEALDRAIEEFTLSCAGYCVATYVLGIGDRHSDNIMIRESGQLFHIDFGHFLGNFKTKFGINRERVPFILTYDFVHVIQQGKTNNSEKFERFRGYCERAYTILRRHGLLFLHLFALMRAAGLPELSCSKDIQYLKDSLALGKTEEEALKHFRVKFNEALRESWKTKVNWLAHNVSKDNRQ
In short: (§2)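 PI3K was preincubated with compound (final DMSO 1%), and the reaction was started with PIP2/ATP substrate and run 30–60 min. It was stopped with a detector mix giving 10 nM red probe and 70 nM GST-GRP.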

PI3K [2] = target: T3, PI3K (Homo sapiens, UniProt P48736); assay: Fluorescence polarization assay for PI3K; assay type: biochemical; conditions: read-out: PI3 Kinase γ IC50
T3 construct: PI3 Kinase γ IC50; other: PI3 Kinase γ; other: PI3 Kinase γ isoform, fluorescence polarization
T3 sequence (P48736 whole entry, canonical isoform): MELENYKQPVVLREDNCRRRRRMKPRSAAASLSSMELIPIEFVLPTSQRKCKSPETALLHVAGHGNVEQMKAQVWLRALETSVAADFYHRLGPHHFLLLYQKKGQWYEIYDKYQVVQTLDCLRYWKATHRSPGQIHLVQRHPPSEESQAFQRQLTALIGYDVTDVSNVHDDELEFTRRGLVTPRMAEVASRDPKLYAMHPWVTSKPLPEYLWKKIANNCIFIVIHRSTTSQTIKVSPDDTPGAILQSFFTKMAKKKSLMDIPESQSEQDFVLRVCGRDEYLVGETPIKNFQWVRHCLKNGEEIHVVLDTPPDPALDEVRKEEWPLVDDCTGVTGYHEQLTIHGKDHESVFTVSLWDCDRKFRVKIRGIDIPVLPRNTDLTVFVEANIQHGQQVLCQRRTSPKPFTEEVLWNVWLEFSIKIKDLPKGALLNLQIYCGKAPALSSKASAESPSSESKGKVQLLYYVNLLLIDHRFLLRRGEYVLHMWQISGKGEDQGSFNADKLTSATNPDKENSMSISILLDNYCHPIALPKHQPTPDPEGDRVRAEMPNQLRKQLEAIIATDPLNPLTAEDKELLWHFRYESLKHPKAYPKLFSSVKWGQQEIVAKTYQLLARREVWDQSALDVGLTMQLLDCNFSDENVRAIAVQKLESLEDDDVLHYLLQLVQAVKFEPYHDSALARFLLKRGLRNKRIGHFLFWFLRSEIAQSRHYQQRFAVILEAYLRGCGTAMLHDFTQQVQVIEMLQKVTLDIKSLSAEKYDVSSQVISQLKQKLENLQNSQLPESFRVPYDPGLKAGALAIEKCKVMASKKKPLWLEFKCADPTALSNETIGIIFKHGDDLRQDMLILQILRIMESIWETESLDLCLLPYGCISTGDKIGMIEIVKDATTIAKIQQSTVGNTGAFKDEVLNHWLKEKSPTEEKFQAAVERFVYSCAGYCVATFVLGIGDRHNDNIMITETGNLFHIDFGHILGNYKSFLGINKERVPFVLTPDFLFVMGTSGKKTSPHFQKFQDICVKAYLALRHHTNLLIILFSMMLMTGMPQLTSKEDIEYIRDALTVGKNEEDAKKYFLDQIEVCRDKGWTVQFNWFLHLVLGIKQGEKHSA
In short: as §2

PI3K [3] = target: T4, PI3K (Homo sapiens, UniProt P42336); assay: Fluorescence polarization assay for PI3K; assay type: biochemical; conditions: read-out: PI3 Kinase α IC50
T4 construct: PI3 Kinase α IC50; other: PI3 Kinase α; other: PI3 Kinase α isoform, fluorescence polarization
T4 sequence (P42336 whole entry, canonical isoform): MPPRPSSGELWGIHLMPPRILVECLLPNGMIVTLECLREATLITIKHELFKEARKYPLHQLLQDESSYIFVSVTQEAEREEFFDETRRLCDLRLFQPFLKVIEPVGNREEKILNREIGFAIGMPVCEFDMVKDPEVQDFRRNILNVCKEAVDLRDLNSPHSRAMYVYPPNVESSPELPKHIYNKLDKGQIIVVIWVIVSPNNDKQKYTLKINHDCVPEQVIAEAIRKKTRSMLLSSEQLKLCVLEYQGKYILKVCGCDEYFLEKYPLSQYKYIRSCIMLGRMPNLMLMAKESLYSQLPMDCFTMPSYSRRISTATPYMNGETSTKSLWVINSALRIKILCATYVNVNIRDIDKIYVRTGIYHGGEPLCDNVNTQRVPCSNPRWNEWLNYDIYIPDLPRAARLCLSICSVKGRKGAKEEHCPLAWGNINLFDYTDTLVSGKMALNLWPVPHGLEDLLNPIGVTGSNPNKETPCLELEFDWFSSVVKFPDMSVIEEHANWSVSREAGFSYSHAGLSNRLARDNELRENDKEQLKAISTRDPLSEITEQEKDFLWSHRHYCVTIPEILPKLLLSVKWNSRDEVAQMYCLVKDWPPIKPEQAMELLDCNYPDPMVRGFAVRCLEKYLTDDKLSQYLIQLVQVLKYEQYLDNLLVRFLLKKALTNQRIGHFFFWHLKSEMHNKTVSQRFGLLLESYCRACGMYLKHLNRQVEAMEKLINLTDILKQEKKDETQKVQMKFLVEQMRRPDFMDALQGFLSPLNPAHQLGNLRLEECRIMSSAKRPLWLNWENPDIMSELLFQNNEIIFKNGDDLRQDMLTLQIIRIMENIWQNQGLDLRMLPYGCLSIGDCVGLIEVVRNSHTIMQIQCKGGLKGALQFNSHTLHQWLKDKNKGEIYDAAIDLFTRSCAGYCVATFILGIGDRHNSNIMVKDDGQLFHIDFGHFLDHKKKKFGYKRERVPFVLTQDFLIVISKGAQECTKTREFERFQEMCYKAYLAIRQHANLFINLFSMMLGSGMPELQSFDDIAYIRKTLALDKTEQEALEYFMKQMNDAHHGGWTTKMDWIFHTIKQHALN
In short: as §2

PI3K [4] = target: T5, PI3K (Homo sapiens, UniProt P42338); assay: Fluorescence polarization assay for PI3K; assay type: biochemical
T5 construct: PI3 Kinase β IC50; other: PI3 Kinase β; other: PI3 Kinase β isoform, fluorescence polarization
T5 sequence (P42338 whole entry, canonical isoform): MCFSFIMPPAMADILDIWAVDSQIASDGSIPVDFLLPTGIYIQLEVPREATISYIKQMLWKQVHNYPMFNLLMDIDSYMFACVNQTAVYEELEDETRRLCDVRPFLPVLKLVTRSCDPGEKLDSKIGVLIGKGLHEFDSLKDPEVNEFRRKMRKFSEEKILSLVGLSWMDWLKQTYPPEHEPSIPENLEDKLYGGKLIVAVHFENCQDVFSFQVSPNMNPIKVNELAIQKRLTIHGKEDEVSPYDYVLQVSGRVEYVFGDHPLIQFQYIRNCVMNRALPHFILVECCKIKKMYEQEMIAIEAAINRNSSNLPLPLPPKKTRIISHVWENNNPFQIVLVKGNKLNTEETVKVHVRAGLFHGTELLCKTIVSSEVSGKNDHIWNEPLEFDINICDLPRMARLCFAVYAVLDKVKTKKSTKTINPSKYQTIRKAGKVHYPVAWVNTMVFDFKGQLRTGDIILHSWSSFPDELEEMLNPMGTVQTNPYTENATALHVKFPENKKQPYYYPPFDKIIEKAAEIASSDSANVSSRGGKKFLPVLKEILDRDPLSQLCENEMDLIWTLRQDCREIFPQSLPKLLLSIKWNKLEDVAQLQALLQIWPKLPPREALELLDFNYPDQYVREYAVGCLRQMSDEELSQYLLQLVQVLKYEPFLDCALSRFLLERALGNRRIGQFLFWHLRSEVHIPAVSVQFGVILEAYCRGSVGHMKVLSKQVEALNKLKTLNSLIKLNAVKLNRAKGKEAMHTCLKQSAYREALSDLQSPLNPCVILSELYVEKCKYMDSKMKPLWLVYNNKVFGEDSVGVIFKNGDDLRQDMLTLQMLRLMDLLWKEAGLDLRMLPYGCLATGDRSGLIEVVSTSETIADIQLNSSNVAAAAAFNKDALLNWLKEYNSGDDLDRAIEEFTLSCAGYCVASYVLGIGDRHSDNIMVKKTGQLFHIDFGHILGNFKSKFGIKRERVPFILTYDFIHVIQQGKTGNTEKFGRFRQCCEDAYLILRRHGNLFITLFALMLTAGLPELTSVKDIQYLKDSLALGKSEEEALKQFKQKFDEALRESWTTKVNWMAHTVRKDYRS
In short: as §2

[5] = test system: acute lymphoblastic leukemia xenograft; conditions: NOS/SCID xenograft mouse model; Teachey et al, Blood 2006; cited from earlier work
[6] = purified human mTOR enzyme, DELFIA format
[7] = PI3 Kinase δ isoform, fluorescence polarization
[8] = PI3 Kinase γ isoform, fluorescence polarization
[9] = PI3 Kinase α isoform, fluorescence polarization
[10] = PI3 Kinase β isoform, fluorescence polarization

| Compound | IC50 (Human mTOR (FLAG-TOR)) [nM] | IC50 (prostate line LNCap) [nM] | IC50 (breast line MDA468) [nM] | IC50 (PI3K [1]; PI3 Kinase δ) [nM] | IC50 (PI3K [2]; PI3 Kinase γ) [nM] | IC50 (PI3K [3]; PI3 Kinase α) [nM] | IC50 (PI3K [4]; PI3 Kinase β) [µM] | IC50 (Human mTOR (FLAG-TOR); [6]) [nM] | IC50 (PI3K [1]; [7]) [nM] | IC50 (PI3K [2]; [8]) [nM] | IC50 (PI3K [3]; [9]) [nM] | IC50 (PI3K [4]; [10]) [µM] | activity in xenograft mouse model of acute lymphoblastic leukemia [5] |
| --- | --- | --- | --- | --- | --- | --- | --- | --- | --- | --- | --- | --- | --- |
| O=C(Nc1ccc(-c2nc(N3CC4CCC(C3)O4)c3cnn(CC(F)(F)F)c3n2)cc1)OCCO [Example 110, 2-hydroxyethyl {4-[4-(8-oxa-3-azabicyclo[3.2.1]oct-3-yl)-1-(2,2,2-trifluoroethyl)-1H-pyrazolo[3,4-d]pyrimidin-6-yl]phenyl}carbamate] | 0.6 | 2.3 | 42 | 12000 | 12000 | 1050 | > 10 |  |  |  |  |  |  |
| COC1CCC(n2ncc3c(N4CC5CCC(C4)O5)nc(-c4ccc(NC(=O)Nc5ccc(N6CCN(C)CC6)cc5)cc4)nc32)CC1 (centres unmarked) [Example 304, 1-{4-[1-(4-methoxycyclohexyl)-4-(8-oxa-3-azabicyclo[3.2.1]oct-3-yl)-1H-pyrazolo[3,4-d]pyrimidin-6-yl]phenyl}-3-[4-(4-methylpiperazin-1-yl)phenyl]urea] |  | < 1 | 1 |  |  |  |  | 0.265 | 200 | 720 | 239 | 2.84 |  |
| O=C(Nc1ccc(-c2nc(N3C[C@@H]4C[C@H]3CO4)c3cnn(CC(F)(F)F)c3n2)cc1)NC1CC1 [Example 296, 1-cyclopropyl-3-(4-{4-[(1S,4S)-2-oxa-5-azabicyclo[2.2.1]hept-5-yl]-1-(2,2,2-trifluoroethyl)-1H-pyrazolo[3,4-d]pyrimidin-6-yl}phenyl)urea] |  | 67 | 138 |  |  |  |  | 1.87 | 6820 | 1070 | 4050 | > 10 |  |
| COC1CCC(n2ncc3c(N4CC5CCC(C4)O5)nc(-c4ccc(NC(=O)NC5CC5)cc4)nc32)CC1 (centres unmarked) [Example 302, 1-cyclopropyl-3-{4-[1-(4-methoxycyclohexyl)-4-(8-oxa-3-azabicyclo[3.2.1]oct-3-yl)-1H-pyrazolo[3,4-d]pyrimidin-6-yl]phenyl}urea] |  | 2 | 7 |  |  |  |  | 0.3 | 1740 | 8020 | 3920 | > 10 |  |
| CNC(=O)Nc1ccc(-c2nc(N3CC4CCC(C3)O4)c3cnn(C4CCC5(CC4)OCCO5)c3n2)cc1 [Example 105, 1-(4-(4-(8-oxa-3-azabicyclo[3.2.1]octan-3-yl)-1-(1,4-dioxaspiro[4.5]decan-8-yl)-1H-pyrazolo[3,4-d]pyrimidin-6-yl)phenyl)-3-methylurea] | 0.21 |  | 26 | 2380 | > 10000 | 1180 | > 10 |  |  |  |  |  |  |
| CO[C@H]1C[C@@H]2CC[C@@H](C)[C@@](O)(O2)C(=O)C(=O)N2CCCC[C@H]2C(=O)O[C@H]([C@H](C)C[C@@H]2CC[C@@H](OC(=O)C(C)(CO)CO)[C@H](OC)C2)CC(=O)[C@H](C)/C=C(\C)[C@@H](O)[C@@H](OC)C(=O)[C@H](C)C[C@H](C)/C=C/C=C/C=C/1C [Torisel] |  |  |  |  |  |  |  |  |  |  |  |  | active |
| CN1CCN(c2ccc(NC(=O)Nc3ccc(-c4nc(N5CC6CCC(C5)O6)c5cnn(CC(F)(F)F)c5n4)cc3)cc2)CC1 [Example 261, 1-[4-(4-methylpiperazin-1-yl)phenyl]-3-{4-[4-(8-oxa-3-azabicyclo[3.2.1]oct-3-yl)-1-(2,2,2-trifluoroethyl)-1H-pyrazolo[3,4-d]pyrimidin-6-yl]phenyl}urea] | 0.776 | 1 | 2 | 945 |  | 142 |  |  |  |  |  |  |  |
| O=C(Nc1ccncc1)Nc1ccc(-c2nc(N3CC4CCC(C3)O4)c3cnn(C4CCN(Cc5cccnc5)CC4)c3n2)cc1 [Example 19, 1-(4-{4-(8-oxa-3-azabicyclo[3.2.1]oct-3-yl)-1-[1-(pyridin-3-ylmethyl)piperidin-4-yl]-1H-pyrazolo[3,4-d]pyrimidin-6-yl}phenyl)-3-pyridin-4-ylurea] | 0.14 | < 0.8 | < 0.8 |  | 391 | 223 |  |  |  |  |  |  |  |
| CCOC(=O)N1CCC(n2ncc3c(N4CC5CCC(C4)O5)nc(-c4ccc(NC(=O)Nc5ccncc5)cc4)nc32)CC1 [Example 35, ethyl 4-[4-(8-oxa-3-azabicyclo[3.2.1]oct-3-yl)-6-{4-[(pyridin-4-ylcarbamoyl)amino]phenyl}-1H-pyrazolo[3,4-d]pyrimidin-1-yl]piperidine-1-carboxylate] | 0.34 | < 0.8 | 9 |  | 1800 | 291 |  |  |  |  |  |  |  |
| CCn1ncc2c(N3CC4CCC(C3)O4)nc(-c3ccc(NC(=O)NCCC(=O)NCCN(C)C)cc3)nc21 [Example 279] | 23.5 | 3200 | 6000 |  | 8110 | 1830 |  |  |  |  |  |  |  |
| CNC(=O)Nc1ccc(-c2nc(N3CC4CCC(C3)O4)c3cnn(C4CCC(=O)CC4)c3n2)cc1 [Example 106, 1-(4-(4-(8-oxa-3-azabicyclo[3.2.1]octan-3-yl)-1-(4-oxocyclohexyl)-1H-pyrazolo[3,4-d]pyrimidin-6-yl)phenyl)-3-methylurea] | 0.22 | 32 | 110 |  | > 10000 | 1300 |  |  |  |  |  |  |  |
| COC(=O)Nc1ccc(-c2nc(N3CC4CCC(C3)O4)c3cnn(C4CCC5(CC4)OCCO5)c3n2)cc1 [Example 377, methyl {4-[1-(1,4-dioxaspiro[4.5]dec-8-yl)-4-(8-oxa-3-azabicyclo[3.2.1]oct-3-yl)-1H-pyrazolo[3,4-d]pyrimidin-6-yl]phenyl}carbamate] |  | 140 | 1200 |  |  |  |  | 2.5 |  | > 10000 | 7360 |  |  |
| COC(=O)N1CCC(n2ncc3c(N4CC5CCC(C4)O5)nc(-c4ccc(NC(=O)OCCN)cc4)nc32)CC1 [Example 114, methyl 4-[6-(4-{[(2-aminoethoxy)carbonyl]amino}phenyl)-4-(8-oxa-3-azabicyclo[3.2.1]oct-3-yl)-1H-pyrazolo[3,4-d]pyrimidin-1-yl]piperidine-1-carboxylate] | 36.5 | 4000 | 6000 |  | 7480 | 1430 |  |  |  |  |  |  |  |
| CCn1ncc2c(N3CC4CCC(C3)O4)nc(-c3ccc(NC(=O)Nc4cccnc4)cc3)nc21 [Example 47, 1-{4-[1-ethyl-4-(8-oxa-3-azabicyclo[3.2.1]oct-3-yl)-1H-pyrazolo[3,4-d]pyrimidin-6-yl]phenyl}-3-pyridin-3-ylurea] | 0.11 | < 0.8 | 1.2 |  | 2720 | 160 |  |  |  |  |  |  |  |
| Oc1cccc(-c2nc(N3C4CCC3COC4)c3cnn(-c4ccccc4)c3n2)c1 [Example 378, 3-[4-(3-oxa-8-azabicyclo[3.2.1]oct-8-yl)-1-phenyl-1H-pyrazolo[3,4-d]pyrimidin-6-yl]phenol] |  | 820 | 5800 |  |  |  |  | 11.5 |  | 1960 | 407 |  |  |
